Patent publication EP0275998A2, “Pharmaceutical preparation for treatment of hyperacidity in body fluids” (priority 1987, dated 1988)

Experiments:
[1] = Titration of rat gastric juice with antacid solutions; assay type: physicochemical; details: aqueous solutions: sodium bicarbonate 150 mM, NMG 150 mM, NMGP 20 mg/cc
Text: Results are given in the appended Figure III.

[2] = Plasma concentration of various components after i.v. administration of NMG; assay type: in vivo; details: cat
[3] = assay type: in vivo, cats
Description: In vivo use of preparations of the invention as antiacidotic agents. […] The recovery of the pH to the normal value follows roughly an exponential course with a time constant of 1-3 minutes. […] Results are given in the appended Figure II.

CNC[C@H](O)[C@@H](O)[C@H](O)[C@H](O)CO [NMG, 1-deoxy-1-(methylamino)-D-glucitol]
antacid potency in titration of gastric juice [1]: more potent than sodium bicarbonate
Plasma concentration Potassium ([2]; 1 min. after i.v. NMG 0.3 mmol/kg (before: 4.2)): 4200 µM
Plasma concentration Urea ([2]; 1 min. after i.v. NMG 0.3 mmol/kg (before: 7)): 6900 µM
Plasma concentration Chloride ([2]; 1 min. after i.v. NMG 0.3 mmol/kg (before: 113)): 112000 µM
Plasma concentration Sodium ([2]; 1 min. after i.v. NMG 0.3 mmol/kg (before: 142)): 145000 µM
Plasma concentration Potassium ([2]; 30 min. after i.v. NMG 0.3 mmol/kg (before: 4.2)): 4200 µM
Plasma concentration Urea ([2]; 30 min. after i.v. NMG 0.3 mmol/kg (before: 7)): 6800 µM
Plasma concentration Chloride ([2]; 30 min. after i.v. NMG 0.3 mmol/kg (before: 113)): 113000 µM
Plasma concentration Sodium ([2]; 30 min. after i.v. NMG 0.3 mmol/kg (before: 142)): 144000 µM
Plasma concentration Potassium ([2]; 120 min. after i.v. NMG 0.3 mmol/kg (before: 4.2)): 4200 µM
Plasma concentration Urea ([2]; 120 min. after i.v. NMG 0.3 mmol/kg (before: 7)): 6600 µM
Plasma concentration Chloride ([2]; 120 min. after i.v. NMG 0.3 mmol/kg (before: 113)): 116000 µM
Plasma concentration Sodium ([2]; 120 min. after i.v. NMG 0.3 mmol/kg (before: 142)): 147000 µM
urine pH ([3]; artificially ventilated cats, 1cc/Kg of 300 mM): Parallel increase
partial pressure of CO₂ (P CO2) ([3]; artificially ventilated cats, 1cc/Kg of 300 mM isotonic solution): clear decrease
time constant of recovery of the pH to the normal value ([3]; artificially ventilated cats, 1cc/Kg of 300 mM, roughly exponential course): 1-3 minutes
blood pH ([3]; artificially ventilated cats, rapid (about 15 sec.) administration of 1cc/Kg of 300 mM isotonic solution, immediate elevation from about 7.4): ~7.9
effect on respiration ([3]; in vivo): no significant effect
effects in the vein through which the solution was administered ([3]; in vivo, iv): No gross deleterious effects
